Data from PMC3994528, “GE23077 binds to the RNA polymerase ‘i’ and ‘i+1’ sites and prevents the binding of initiating nucleotides” (eLife, 2014).
Read-outs that look alike come from different tables or passages of the source.

Key:
[1] = system: E. coli D21f2tolC; test: Resistance and cross-resistance levels, rpoB mutants from saturation mutagenesis (plasmid-borne), broth microdilution; type: cell-based, Escherichia coli
[2] = molecular target: T1, E. coli RNAP holoenzyme ([F^517]σ^70-RNAP holoenzyme) (Escherichia coli, UniProt P0A8T7+P0A8V2); test: Fluorescence-detected RNAP-Rif interaction assay; type: binding; details: for Kd: calculated as koff/kon
T1 construct: made in house
Method: RNAP-Rif interaction assays were performed as in [Feklistov et al. (2008)]. The assays monitored the quenching of the fluorescence emission of fluorescein incorporated into RNAP holoenzyme at σ^70 residue 517 (serving as a fluorescence-resonance-energy-transfer donor) by the naphthyl moiety of Rif (serving as a fluorescence-resonance-energy-transfer acceptor; [Knight et al., 2005]; [Feklistov et al., 2008]). Fluorescence measurements were performed using a QuantaMaster QM1 spectrofluorometer (PTI, Edison, NJ) (excitation wavelength = 480 nm; emission wavelength = 530 nm; and excitation and emission slit widths = 5 nm).
For determination of association kinetics, 720 μl 2 nM [F^517]σ^70-RNAP holoenzyme and 0-2 μM GE in 40 mM Tris–HCl, pH 8.0, 100 mM NaCl, 10 mM MgCl2, 1 mM DTT, 0.02% Tween-20, and 5% glycerol was incubated 15 min at 24°C and then mixed with 30 μl 0.01–0.5 μM Rif in the same buffer at 24°C in a cuvette chamber with a mixing dead time ∼0.5 s, and fluorescence emission intensities were monitored for 30 min at 24°C. On-rates for RNAP-Rif interaction, kon, were calculated by fitting data to: I=(I0−I∞)exp(−kobst)+I∞ where kobs is the observed association rate constant at a specified Rif concentration, I is the fluorescence emission intensity at time t, Io is the fluorescence emission intensity at t = 0, and I∞ is the fluorescence emission intensity at t = ∞; followed by fitting the Rif-concentration-dependence of kobs to: kobs=kon[Rif]+koff where koff is ≥0 but is otherwise unconstrained.
Off-rates for RNAP-Rif interaction, koff, were calculated as: I=I0+(I∞−I0)[1−exp(−kofft)] where I is the fluorescence emission intensity at time t, Io is the fluorescence intensity at t = 0, and I∞ is the fluorescence intensity at t = ∞.
Equilibrium dissociation constants for RNAP-Rif interaction, Kd, were calculated as koff/kon.
The equilibrium dissociation constant for RNAP-GE interaction, Ki, was calculated from the association-kinetics data, by fitting the GE-concentration-dependence of I∞ to: I∞=(I∞,max[GE])/(Ki+[GE])

[3] = molecular target: T2, E. coli RNAP holoenzyme (Escherichia coli, UniProt P0A8T7+P0A8V2); type: biochemical; details: 0.5 μM GE or 2.2 μM Rif; lacUV5(ICAP) promoter
[4] = molecular target: T2, E. coli RNAP holoenzyme; type: biochemical; details: 0.5 μM GE or 2.2 μM Rif; ApA primer and UTP
[5] = molecular target: T2, E. coli RNAP holoenzyme; type: biochemical; details: halted TEC containing 29 nt RNA product
[6] = molecular target: [Asn516]β-RNAP (Escherichia coli, UniProt P0A8T7+P0A8V2, D516N); test: biochemical; type: biochemical
[7] = molecular target: Escherichia coli RNAP (Escherichia coli, UniProt P0A8T7+P0A8V2); test: biochemical; type: biochemical; details: wild-type RNAP; at the limit of detection of the assay
[8] = molecular target: [Asp565]β-RNAP (Escherichia coli, UniProt P0A8T7+P0A8V2, E565D); type: biochemical
[9] = molecular target: [F^517]σ^70-RNAP holoenzyme (E. coli RNAP holoenzyme labelled with fluorescein at σ^70 residue 517), wild-type RNAP (E. coli) (UniProt P0A8V2); test: other fluorescence titration
[10] = molecular target: GE23077; test: partial-competitive binding of GE and Rif: association kinetics for Rif (fluorescence intensity of fluorescein-labelled RNAP holoenzyme); details: 2000 nM GE
[11] = rpoB 565 Glu→Asp, GE^R mutant from saturation mutagenesis
[12] = rpoB 566 Gly→Arg, GE^R mutant from saturation mutagenesis
[13] = rpoB 566 Gly→Cys, GE^R mutant from saturation mutagenesis
[14] = rpoB 566 Gly→Ser, GE^R mutant from saturation mutagenesis
[15] = rpoB 684 Asn→Lys, GE^R mutant from saturation mutagenesis
[16] = rpoB 684 Asn→Thr, GE^R mutant from saturation mutagenesis
[17] = wild-type control of the saturation-mutagenesis mutants, E. coli D21f2tolC

Compound	resistance / cross-resistance level (MIC/MICwild-type) [1, 11]	resistance / cross-resistance level (MIC/MICwild-type) [1, 12]	resistance / cross-resistance level (MIC/MICwild-type) [1, 13]	resistance / cross-resistance level (MIC/MICwild-type) [1, 14]	resistance / cross-resistance level (MIC/MICwild-type) [1, 15]	resistance / cross-resistance level (MIC/MICwild-type) [1, 16]	MICwild-type [1, 17] [µg/mL]	other results
CCC/C(C)=C/C=C(\C)C(=O)c1c(O)cc([C@H](C)CC/C=C/NC(=O)OC)oc1=O (racemic) [Myx, (±)E,E-myxopyronin B]	1	1	1	1	1	1	0.098	–
ONC(=Nc1ccccc1)c1cccc(C(F)(F)F)c1 [CBR703]	1	1	1	1	1	2	6.25	–
CO[C@H]1/C=C/O[C@@]2(C)Oc3c(C)c(O)c4c(O)c(c(/C=N/N5CCN(C)CC5)c(O)c4c3C2=O)NC(=O)/C(C)=C\C=C\[C@H](C)[C@H](O)[C@@H](C)[C@@H](O)[C@@H](C)[C@H](OC(C)=O)[C@@H]1C [Rif, Rifampin]	–	–	–	–	–	–	–	cross-resistance of GE^R mutants to other RNAP inhibitors ([1]; GE^R mutants): do not exhibit cross-resistance; resistance / cross-resistance level (MIC/MICwild-type) ([1]; {}): 1; Kd ([2]; absence of GE): 0.4 nM; Kd ([2]; presence of saturating GE (2000 nM)): 30 nM; koff ([2]; read-out: koff for Rif, 0 nM GE, Figure 6-figure supplement 1): 0.00019 s⁻¹; koff ([2]; read-out: koff for Rif, absence of GE, Figure 6C): 0.0002 s⁻¹; kon ([2]; read-out: kon for Rif, 0 nM GE, Figure 6-figure supplement 1 (condition assigned by comparison with Figure 6C)): 520000 M⁻¹ s⁻¹; kon ([2]; read-out: kon for Rif, absence of GE, Figure 6C): 500000 M⁻¹ s⁻¹; inhibition of formation of RNAP-promoter open complex (RPo) [3]: does not inhibit formation of RPo; inhibition of first nucleotide addition, primer-dependent transcription initiation [4]: does not generally inhibit the first nucleotide-addition step in transcription initiation; inhibition of nucleotide addition in transcription elongation, halted elongation complex [5]: does not inhibit nucleotide addition in transcription elongation; MICwild-type: 0.2 µg/mL
CO[C@H]1/C=C/O[C@@]2(C)Oc3c(C)c(O)c4c(O)c(cc(O)c4c3C2=O)NC(=O)/C(C)=C\C=C\[C@H](C)[C@H](O)[C@@H](C)[C@@H](O)[C@@H](C)[C@H](OC(C)=O)[C@@H]1C [RifSV, rifamycin SV]	–	–	–	–	–	–	–	IC50 [6]: 10000 nM
CO[C@H]1/C=C/O[C@@]2(C)Oc3c(C)c(O)c4c(O)c(c(NC(C)C(C)C(=O)NC[C@H]5NC(=O)CNC(=O)[C@H](O)CNC(=O)[C@@H]([C@@H](C)O)NC(=O)[C@H]([C@@H](O)[C@H](O)C(N)=O)NC(=O)[C@@H](C(C)C)NC(=O)[C@@H](CO)NC5=O)c(O)c4c3C2=O)NC(=O)/C(C)=C\C=C\[C@H](C)[C@H](O)[C@@H](C)[C@@H](O)[C@@H](C)[C@H](OC(C)=O)[C@@H]1C (stereo partly drawn) [RifaGE-3, {[α-descarboxy-Ama]GE}-NH-{RifSV}]	–	–	–	–	–	–	–	IC50 [7]: ≤ 40 nM; fold more potent than GE in inhibition of GE^R RNAP [8]: > 2500 fold; fold more potent than RifSV in inhibition of Rif^R RNAP [6]: 50 fold; IC50 ([6]; Rif-resistant RNAP [Asn516]β-RNAP, read-out: IC50): 200 nM
CNC(=O)[C@@H](C)[C@H]1C(=O)/C(=C(O)/C=C/C(C)=C/[C@@H](C)[C@H]2O[C@@]3(C)O[C@H](C=C[C@@]34CO4)[C@@H]2C)C(=O)N1[C@@H]1CC[C@H](O)[C@H](C)O1 [Stl, streptolydigin]	–	–	–	–	–	–	–	MICwild-type ([1]; {}): 0.78 µg/mL; resistance / cross-resistance level (MIC/MICwild-type) ([1]; {}): 1
GE23077 (peptide)	–	–	–	–	–	–	–	Ki [9]: 6 nM
Lipiarmycin [Lpm]	1	1	1	1	1	1	0.78	–
Sorangicin	1	1	1	1	1	1	1.56	–
[F^517]σ^70-RNAP holoenzyme (E. coli RNAP holoenzyme labelled with fluorescein at σ^70 residue 517), wild-type RNAP (from UniProt P0A8V2;P0A8T7;P00579) [Asp565]β	–	–	–	–	–	–	–	Ki [10]: > 2000 nM
[F^517]σ^70-RNAP holoenzyme (E. coli RNAP holoenzyme labelled with fluorescein at σ^70 residue 517), wild-type RNAP (from UniProt P0A8V2;P0A8T7;P00579) [Lys684]β	–	–	–	–	–	–	–	Ki [10]: > 2000 nM
